# According to article PMC4147587, “Synthesis and Analgesic Effects of μ-TRTX-Hhn1b on Models of Inflammatory and Neuropathic Pain” (Toxins, 2014):
# “Also recorded” adds a separate entry of the source. Read-outs that look alike come from different tables or passages of the source.
# Experiments:
# [1] = tested on: acetic acid-induced abdominal constriction responses in mice; format: in vivo, mouse (ICR); details: 15 min before acetic acid, 30 min count, n = 6
# Description: The abdominal constriction responses induced by intraperitoneal (i.p.) injection of 0.2 mL acetic acid (0.8%), including contraction of the abdominal muscle and stretching of the hind limbs, were performed according to procedures described by Collier et al.. Mice (male, weighing 20–25 g) were pre-treated with the test samples dissolved in saline by intraperitoneal (i.p.) injection for 15 min prior to acetic acid injection. Control animals received the same volume of vehicle (saline: 0.9% sodium chloride solution). After the challenge, mice were individually placed into open polyvinyl cages (30 cm × 40 cm × 30 cm), and the abdominal constriction responses were counted cumulatively during 30 min, which was represented as the sum of constriction (S). The inhibition of pain responses was calculated by the equation as follows: inhibition of pain responses % = (Ssaline − Sdrug)/Ssaline per animal. One hundred percent corresponds to complete reversal of pain, equivalent to the non-injury value, and 0% corresponds to the value from the saline group.
# [2] = tested on: SNI-induced mechanical allodynia in rats; format: in vivo, rat (Sprague-Dawley); details: for withdrawal threshold to von Frey hair: 200 μg/kg i.p., mean ± SEM, n = 6
# Description: The spared nerve injury was produced as described previously by Decosterd and Woolf. The rats (male, weighing 180–220 g) were anesthetized with ketamine (300 mg/kg) and placed on a pad. Aseptic techniques were used, and the sciatic nerve and its three terminal branches, including the sural, common peroneal and tibial nerves, were exposed, ligated and transected. Muscle and skin were closed with 4-0 polydiaxone and wound clips. Sham controls involved the exposure of the sciatic nerve and its branches without any lesion.
# Allodynia was assessed 3 days after SNI surgery, and only rats that developed allodynia, as defined by a significant decrease in their mechanical threshold using von Frey filament, were used. Tactile allodynia was assessed with calibrated von Frey filaments (Stoelting, Wood Dale, IL, USA) using an up-down paradigm. Mechanical sensitivity was determined by applying a series of twenty calibrated von Frey filaments (0.008–2 g, 2–60 g) to the plantar aspect of the left hind paw. […] A response was indicated by brisk withdrawal of the hind paw.
# [3] = molecular target: T1, human Nav1.7 (Homo sapiens, UniProt Q15858); test: whole-cell patch clamp, human Nav1.7 transiently expressed in HEK 293 cells; format: cell-based
# T1 construct: expressed in transfected cells; host or cells: HEK293 cells, transient transfection with Lipofectamine 2000
# T1 sequence (Q15858 other isoform, or with tags, fused parts or gaps): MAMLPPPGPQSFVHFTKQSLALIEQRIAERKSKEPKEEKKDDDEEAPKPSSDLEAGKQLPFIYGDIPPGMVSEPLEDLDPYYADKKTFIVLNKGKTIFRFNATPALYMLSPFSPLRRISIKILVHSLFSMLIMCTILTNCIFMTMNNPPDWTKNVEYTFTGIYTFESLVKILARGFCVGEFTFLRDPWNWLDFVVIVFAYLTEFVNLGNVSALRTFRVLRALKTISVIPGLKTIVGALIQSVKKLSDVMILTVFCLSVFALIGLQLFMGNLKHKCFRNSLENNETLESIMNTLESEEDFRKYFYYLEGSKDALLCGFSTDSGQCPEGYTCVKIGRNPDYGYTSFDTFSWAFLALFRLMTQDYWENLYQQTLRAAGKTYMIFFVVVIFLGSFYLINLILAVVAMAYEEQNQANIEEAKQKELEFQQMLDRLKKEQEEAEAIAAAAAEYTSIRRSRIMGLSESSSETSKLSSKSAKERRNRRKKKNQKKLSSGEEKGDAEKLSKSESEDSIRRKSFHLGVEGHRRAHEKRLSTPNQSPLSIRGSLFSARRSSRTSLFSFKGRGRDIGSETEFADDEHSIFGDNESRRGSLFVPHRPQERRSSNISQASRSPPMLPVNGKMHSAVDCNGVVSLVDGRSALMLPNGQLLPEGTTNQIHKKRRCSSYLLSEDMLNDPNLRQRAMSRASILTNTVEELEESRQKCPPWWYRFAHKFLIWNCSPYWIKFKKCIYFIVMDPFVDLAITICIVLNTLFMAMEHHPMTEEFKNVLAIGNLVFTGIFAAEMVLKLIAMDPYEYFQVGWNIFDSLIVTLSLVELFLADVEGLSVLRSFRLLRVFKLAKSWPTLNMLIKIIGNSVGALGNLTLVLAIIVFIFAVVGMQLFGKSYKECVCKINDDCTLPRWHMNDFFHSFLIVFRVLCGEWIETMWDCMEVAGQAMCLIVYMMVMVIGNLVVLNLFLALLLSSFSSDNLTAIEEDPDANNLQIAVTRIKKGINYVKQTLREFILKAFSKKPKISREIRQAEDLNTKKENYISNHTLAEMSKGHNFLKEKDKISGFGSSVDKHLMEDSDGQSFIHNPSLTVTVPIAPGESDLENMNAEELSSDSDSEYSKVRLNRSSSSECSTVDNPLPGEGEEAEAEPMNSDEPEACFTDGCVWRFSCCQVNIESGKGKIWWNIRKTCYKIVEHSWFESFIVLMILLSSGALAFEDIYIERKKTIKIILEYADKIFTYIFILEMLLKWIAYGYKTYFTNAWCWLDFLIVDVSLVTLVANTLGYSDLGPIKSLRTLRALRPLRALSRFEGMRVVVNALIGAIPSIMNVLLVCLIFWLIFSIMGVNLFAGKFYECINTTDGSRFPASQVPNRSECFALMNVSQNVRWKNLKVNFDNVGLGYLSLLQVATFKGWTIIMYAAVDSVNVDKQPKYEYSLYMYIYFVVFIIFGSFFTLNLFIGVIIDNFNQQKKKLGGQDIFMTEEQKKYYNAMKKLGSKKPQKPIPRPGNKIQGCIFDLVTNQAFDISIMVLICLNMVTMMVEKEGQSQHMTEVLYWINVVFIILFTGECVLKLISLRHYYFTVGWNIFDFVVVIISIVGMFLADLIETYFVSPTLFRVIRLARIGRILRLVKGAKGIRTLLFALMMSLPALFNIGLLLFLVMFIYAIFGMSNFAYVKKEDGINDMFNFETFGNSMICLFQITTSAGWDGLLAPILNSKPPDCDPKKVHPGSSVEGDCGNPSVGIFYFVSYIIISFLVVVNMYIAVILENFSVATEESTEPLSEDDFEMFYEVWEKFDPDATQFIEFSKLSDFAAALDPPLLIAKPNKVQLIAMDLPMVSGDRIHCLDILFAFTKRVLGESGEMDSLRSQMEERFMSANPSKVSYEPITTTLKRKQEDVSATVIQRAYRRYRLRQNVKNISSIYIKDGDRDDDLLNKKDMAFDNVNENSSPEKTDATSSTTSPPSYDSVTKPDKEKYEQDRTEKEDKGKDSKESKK
# T1 sequence (Q07699 19-218, further chain): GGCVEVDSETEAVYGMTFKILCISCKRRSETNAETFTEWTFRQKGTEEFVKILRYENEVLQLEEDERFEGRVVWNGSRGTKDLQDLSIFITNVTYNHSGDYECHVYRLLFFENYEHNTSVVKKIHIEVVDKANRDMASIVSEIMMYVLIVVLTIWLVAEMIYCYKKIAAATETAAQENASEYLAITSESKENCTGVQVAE
# Text: Figure 2 Inhibitory effect of synthetic μ-TRTX-Hhn1b on Nav1.7 expressed on HEK 293 cells. […] (B) The inhibition of μ-TRTX-Hhn1b on Nav1.7 was dose-dependent. […] Data are plotted as a fraction of the maximum conductance. The voltage-dependence of steady-state inactivation was estimated using a standard double-pulse protocol, in which a 20-ms depolarizing test potential of 0 mV followed a 500-ms prepulse at potentials that ranged from −130 to −10 mV with a 10-mV increment. Cells were held at −100 mV.
# A human Nav1.7 channel plasmid (accession No. NM_002977) and a plasmid for green ﬂuorescent protein were transiently transfected into human embryonic kidney 293 (HEK293) cells using Lipofectamine 2000 (Invitrogen, Carlsbad, CA, USA) according to the manufacturer’s instructions. HEK293 cells were grown under standard tissue culture conditions (5% CO2; 37 °C) in DMEM supplemented with 10% FBS. The β1 subunit was cotransfected with the Nav1.7 channel to increase the current density. Cells with green ﬂuorescence were selected for whole-cell patch-clamp recording at 36–72 h after transfection. Patch-clamp experiments were performed at room temperature. Suction pipettes (2.0–3.0 MΩ) were made from borosilicate glass capillary tubes using a two-step vertical micropipette puller. The pipette solution contained (in mM): CsCl 145, MgCl2∙6H2O 4, HEPES 10, EGTA 10, glucose 10, ATP 2 (pH 7.2). The external solution contained (in mM): NaCl 145, KCl 2.5, CaCl2 1.5, MgCl2.6H2O 1.2, HEPES 10, glucose 10 (pH 7.4). Experimental data were collected and analyzed using the program Pulse/Pulsefit 8.0 (HEKA Electronics, Pfalz, Germany). Macroscopic sodium currents were filtered at 5 kHz and digitized at 20 kHz with an EPC-9 patch-clamp amplifier (HEKA Electronics, Pfalz, Germany). Series resistance was kept near 5 MΩ and compensated to 65%–70%; linear capacitative and leakage currents were digitally subtracted using the P/4 protocol.
# [4] = tested on: mice and rats; test: observation of death and abnormal behaviors in the pain tests; format: in vivo
# [5] = tested on: neuronal TTX-S VGSCs in rat dorsal root ganglion (DRG) cells; details: cited from earlier work
# Text: μ-TRTX-Hhn1b (HNTX-IV) is a 35-residue peptide from tarantula Ornithoctonus hainana (Haplopelma hainanum) venom. The amino acid sequence is […]. The peptide amidated at its C-terminal has a high proportion of basic residues and is crosslinked by three disulfide bonds. […] Therefore, the rotarod latency test was used to access the motor side effects of μ-TRTX-Hhn1b in rats.
# [6] = tested on: Nav1.2, Nav1.3, Nav1.4, Nav1.5, Nav1.7; details: reference not given; cited from earlier work
# [7] = tested on: formalin-induced pain behaviors in rats; test: formalin-induced inflammatory rat model; format: in vivo, rat (Sprague-Dawley); details: for pain score over the 40 min period: mean ± SEM, saline 569.2 ± 43.5 s
# Description: Acute and chronic nociceptive responses were measured using the rat paw formalin test as descried by Dubission and modified by Malmberg. Adult Sprague-Dawley rats (male, weighing 180–220 g) were used for this behavioral test. During the test, each rat was placed into open polyvinyl cages (30 cm × 40 cm × 30 cm) and at least 30 min before administration of the toxin. All agents were administered 30 min prior to s.c. intraplantar formalin injection. A volume of 50 μL formalin (5%) solution was used as previously described and injected into the plantar surface of one hind paw. Lifting, favoring, licking, shaking and flinching of the injected paw were recorded as nociceptive responses. The total time of the nociceptive response was measured every 5 min and […] (mean ± SEM). Recording of nociceptive behavior commenced immediately after formalin injection and was continued for 40 min.
smiles,measurement,setting,value
CC[C@H](C)[C@H](NC(=O)[C@H](CCC(=O)O)NC(=O)[C@H](Cc1ccc(O)cc1)NC(=O)[C@H](CCCCN)NC(=O)[C@@H]1CSSC[C@@H]2NC(=O)[C@H](CCC(N)=O)NC(=O)[C@H](CC(=O)O)NC(=O)[C@H](CC(N)=O)NC(=O)[C@H](CO)NC(=O)[C@@H]3CCCN3C(=O)[C@H](CC(N)=O)NC(=O)[C@@H]3CSSC[C@H](NC(=O)[C@H](C(C)C)NC(=O)[C@H](CC(C)C)NC(=O)[C@H](CC(N)=O)NC(=O)[C@H](CO)NC(=O)[C@H](CO)NC(=O)[C@H](CCCCN)NC(=O)[C@H](CSSC[C@H](NC(=O)[C@@H](N)CCC(=O)O)C(=O)N[C@@H](CC(C)C)C(=O)NCC(=O)N[C@@H](Cc4ccccc4)C(=O)NCC(=O)N[C@@H](CCCCN)C(=O)NCC(=O)N3)NC2=O)C(=O)N[C@@H](CO)C(=O)N[C@@H](CCCNC(=N)N)C(=O)N[C@@H](CCCCN)C(=O)N[C@@H](Cc2c[nH]cn2)C(=O)N[C@@H](CCCNC(=N)N)C(=O)N[C@@H](Cc2c[nH]c3ccccc23)C(=O)N1)C(N)=O [μ-TRTX-Hhn1b],inhibition of pain responses (abdominal constriction),"[1]; 25.0 μg/kg i.p., p < 0.05",25.2%
same,inhibition of pain responses (abdominal constriction),"[1]; 100 μg/kg i.p., p < 0.01",55.6%
same,reversal of SNI-induced mechanical allodynia,"[2]; 50 µg/kg, 100 µg/kg or 200 µg/kg i.p., n = 6 per group",depressed in a dose-dependent manner; also recorded: significantly reversed SNI-induced allodynia
same,withdrawal threshold to von Frey hair,"[2]; 60 min after injection, saline 1.4 ± 0.4 g, p < 0.01",8.8 ± 0.9 g
same,withdrawal threshold to von Frey hair,"[2]; 100 min after injection, p < 0.05",4.0 ± 0.6 g
same,duration of antinociceptive effect,[2]; i.p.,more than 100 min
same,duration of antinociceptive effect relative to mexiletine,[2]; i.p.,about two-fold longer than that of mexiletine
same,effect on activation and inactivation of Nav1.7,[3]; 50 nM synthetic peptide,did not significantly alter the activation (C) and steady-state inactivation (D) of Nav1.7; also recorded: inhibited the peak current of Nav1.7 without significant alteration of the activation and inactivation kinetics of Nav1.7
same,half-activation voltage of Nav1.7,"[3]; 50 nM synthetic peptide, Boltzmann fit",−23.0 ± 0.4 mV
same,half-inactivation voltage of Nav1.7,"[3]; 50 nM synthetic peptide, steady-state inactivation, Boltzmann fit",−47.1 ± 0.3 mV
same,"τon, time-dependent inhibition of Nav1.7","[3]; 100 nM synthetic peptide, HEK 293 cells",20.5 ± 0.3 s
same,inhibitory effect of synthetic peptide compared with native toxin,[3]; human Nav1.7 in HEK 293 cells,same inhibitory effect on human Nav1.7 current transiently expressed in HEK 293 cells as the native toxin
same,IC50,"[3]; synthetic peptide, human Nav1.7 + β1 subunit in HEK 293 cells, whole-cell patch clamp, room temperature, 50-ms depolarization from −80 mV to −10 mV, mean ± S.E., five to eight cells, read-out: IC50, inhibition of Nav1.7 current",~0.021 µM
same,side effects,[4]; 0.2 mg/kg,inactivity and paralysis
same,abnormal behaviors,"[4]; highest dose, some mice and rats","inactivity and paralysis, were observed in some mice and rats"
same,animal death,[4]; in the three pain tests / all tests,no animal death was observed; also recorded: no animal death occurred in all tests
same,inhibition of other TTX-S VGSCs,"[5]; at a high concentration, reference not given",also inhibits other TTX-S VGSCs in rat DRG cells at a high concentration
same,inhibition of neuronal TTX-S VGSCs,[5],specifically inhibits the neuronal TTX-S VGSCs in rat dorsal root ganglion (DRG) cells
same,sensitivity of Nav1.7 relative to other channels,[6],Nav1.7 is the most sensitive to μ-TRTX-Hhn1b
same,pain score over the 40 min period,"[7]; 50 µg/kg i.p., n = 6, p < 0.05",458.5 ± 59.9 s
same,pain score over the 40 min period,"[7]; 100 µg/kg i.p., n = 6, p < 0.01",346.0 ± 46.2 s
same,pain score over the 40 min period,"[7]; 200 µg/kg i.p., n = 6, p < 0.01",199.8 ± 32.6 s
same,antinociceptive activity compared with morphine,"[7]; 200 µg/kg peptide vs 100 µg/kg morphine, i.p.",antinociceptive activity similar to 100 µg/kg of morphine
same,"effect on pain responses, early phase","[7]; early phase (0–5 min), 50, 100 or 200 µg/kg i.p.",not in the early phases; also recorded: little effect
same,"suppression of pain behaviors, late phase","[7]; late phase (15–30 min), 50, 100 or 200 µg/kg i.p.",dose-dependent suppression of pain behaviors; also recorded: significantly inhibited
